Assay results from patent EP4682156A1, “LINKER AND DRUG CONJUGATE USING SAME, AND ANTIBODY-DRUG CONJUGATE AND USE THEREOF” (Shanghai Affinity Biopharmaceutical Co., Ltd., priority 2023, dated 2024).
Where two headings read alike, the source gives them in different places. *1 amine or outer side, *2 acyl side, *3 side chain or, on linkers, in order; H or OH if unused. Where a SMILES comes first, the peptide text is derived from it. [ ]: non-standard residue; d: D form. The star is where a group is joined. Doxorubicin(3'-N) = COc1cccc2c1C(=O)c1c(O)c3c(c(O)c1C2=O)C[C@@](O)(C(=O)CO)C[C@@H]3O[C@H]1C[C@H](N*)[C@H](O)[C@H](C)O1; Exatecan = CC[C@@]1(O)C(=O)OCc2c1cc1n(c2=O)Cc2c-1nc1cc(F)c(C)c3c1c2[C@@H](N*)CC3; X8 = CCc1c2c(nc3ccc(O)cc13)-c1cc3c(c(=O)n1C2)COC(=O)[C@@]3(CC)OCN*; X5 = CCc1c2c(nc3ccc(OCN*)cc13)-c1cc3c(c(=O)n1C2)COC(=O)[C@]3(O)CC; X1 = O=C(CCCCCOC1O[C@H](CO)[C@H](O)[C@H](O)[C@H]1N[*:1])[*:2]; X9 = Nc1ccn([C@@H]2O[C@H](COCN*)[C@@H](O)C2(F)F)c(=O)n1; Dolaproine = CO[C@@H]([C@@H]1CCCN1)[C@@H](C)C(=O)O; Hexanoyl(6-maleimido) = O=C1C=CC(=O)N1CCCCCC(=O)*; Dil = CC[C@H](C)[C@H](NC)[C@@H](CC(=O)O)OC; X4 = CCCCc1nc2c(N)nc3ccccc3c2n1CCCCN*; X7 = O=C(OC1[C@H]2CCC#CCC[C@@H]12)*; DBCO = C1#Cc2ccccc2N(*)Cc2ccccc21; NHCH2OCH2CO = O=C(COCN[*:1])[*:2]; X3 = C[C@@H](N*)[C@@H](O)c1ccccc1; X6 = O=C1C=C(Br)C(=O)N1CCC(=O)*; X2 = COCCOCCOCCOCCOCCOCC(=O)*; Suc = O=C(CCC(=O)[*:2])[*:1]; NMeV = CN[C@H](C(=O)O)C(C)C; PEG3 = NCCOCCOCCOCCC(=O)O; GABA = NCCCC(=O)O

Assays:
[1] = Stability in human plasma; details: within 20 hours
cathepsin L = cathepsin L (Homo sapiens, UniProt P07711); assay: Enzymatic cleavage by cathepsin L, released DXD quantified by HPLC; format: biochemical; design: Enzymatic cleavage efficiency %: concentration or dose not given beside the values
Sequence of cathepsin L (P07711 114-333): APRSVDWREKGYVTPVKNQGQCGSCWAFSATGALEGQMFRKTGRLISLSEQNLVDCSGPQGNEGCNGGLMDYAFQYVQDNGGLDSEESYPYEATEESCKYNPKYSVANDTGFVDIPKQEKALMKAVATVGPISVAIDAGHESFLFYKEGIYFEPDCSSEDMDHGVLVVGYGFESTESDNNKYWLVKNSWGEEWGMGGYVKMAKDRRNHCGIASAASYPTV

[2] = human
Human Fibrosarcoma = system: Human Fibrosarcoma; design: species or system Nude mice; details: mouse, in vivo

SMILES: CCCCc1nc2c(N)nc3ccccc3c2n1CCCCNC(=O)[C@H](CC(C)C)NC(=O)[C@H](Cc1ccccc1)NC(=O)CNC(=O)CNC(=O)CCOCCOCCOCCNC(=O)OC1[C@H]2CCC#CCC[C@@H]12 (stereo partly shown) [S27]
- Substrate content % [1]: 100%
- Enzymatic cleavage efficiency % (cathepsin L; cathepsin L, within 20 h): 94.5%

SMILES: CCc1c2c(nc3ccc(O)cc13)-c1cc3c(c(=O)n1C2)COC(=O)[C@@]3(CC)OCNC(=O)[C@H](CC(C)C)NC(=O)[C@H](Cc1ccccc1)NC(=O)CNC(=O)CNC(=O)CCCCCN1C(=O)C=CC1=O [S15] ({Hexanoyl(6-maleimido)}-GGFL-X8)
- Enzymatic cleavage efficiency % (cathepsin L): 95.1%

SMILES: CC[C@@]1(O)C(=O)OCc2c1cc1n(c2=O)Cc2c-1nc1cc(F)c(C)c3c1c2[C@@H](NC(=O)COCNC(=O)[C@@H](N)CC(C)C)CC3 [L-AM-DXD, Leu-AM-DXd, reference compound]
- DXD produced, share of the reaction substrate (enzymatic cleavage activation efficiency) (cathepsin L; pH 6): 1.45%

SMILES: CC[C@H](C)[C@@H]([C@@H](CC(=O)N1CCC[C@H]1[C@H](OC)[C@@H](C)C(=O)N[C@H](C)[C@@H](O)c1ccccc1)OC)N(C)C(=O)[C@@H](NC(=O)[C@H](C(C)C)N(C)C(=O)[C@H](CC(C)C)NC(=O)[C@H](Cc1ccccc1)NC(=O)CNC(=O)CNC(=O)CCCCCN1C(=O)C=CC1=O)C(C)C [S5] ({Hexanoyl(6-maleimido)}-GGFL[NMeV]V[Dil][Dolaproine]-X3)
- Enzymatic cleavage efficiency % (cathepsin L): 93.1%

SMILES: CCc1c2c(nc3ccc(OCNC(=O)[C@H](CC(C)C)NC(=O)[C@H](Cc4ccccc4)NC(=O)CNC(=O)CNC(=O)CCCCCN4C(=O)C=CC4=O)cc13)-c1cc3c(c(=O)n1C2)COC(=O)[C@]3(O)CC [S14] ({Hexanoyl(6-maleimido)}-GGFL-X5)
- Substrate content % [1]: 98.0%
- Enzymatic cleavage efficiency % (cathepsin L): 98.0%

SMILES: CC[C@@]1(O)C(=O)OCc2c1cc1n(c2=O)Cc2c-1nc1cc(F)c(C)c3c1c2[C@@H](NC(=O)COCNC(=O)[C@H](CC(C)C)NC(=O)[C@H](Cc1ccccc1)NC(=O)CNC(=O)CNC(=O)CCOCCOCCOCCNC(=O)CCC(=O)N1Cc2ccccc2C#Cc2ccccc21)CC3 [S34] ({DBCO-Suc-PEG3}-GGFL[NHCH2OCH2CO]-Exatecan)
- Substrate content % [1]: 98.3%
- Enzymatic cleavage efficiency % (cathepsin L): 98.1%

SMILES: CC[C@@]1(O)C(=O)OCc2c1cc1n(c2=O)Cc2c-1nc1cc(F)c(C)c3c1c2[C@@H](NC(=O)[C@H](CC(C)C)NC(=O)[C@H](Cc1ccccc1)NC(=O)CNC(=O)CNC(=O)CCN1C(=O)C=C(Br)C1=O)CC3 [S26] (X6-GGFL-Exatecan)
- Substrate content % [1]: 100%
- Enzymatic cleavage efficiency % (cathepsin L): 95.1%

SMILES: CC[C@@]1(O)C(=O)OCc2c1cc1n(c2=O)Cc2c-1nc1cc(F)c(C)c3c1c2[C@@H](NC(=O)COCNC(=O)[C@H](CC(C)C)NC(=O)[C@H](Cc1ccccc1)NC(=O)CNC(=O)CNC(=O)CCCCCN1C(=O)C=CC1=O)CC3 [S6] ({Hexanoyl(6-maleimido)}-GGFL[NHCH2OCH2CO]-Exatecan)
- Generated load % [1]: 2.0%
- Substrate content % [1]: 98.0%
- Enzymatic cleavage efficiency % (cathepsin L): 98.0%

SMILES: CCCCc1nc2c(N)nc3ccccc3c2n1CCCCNC(=O)[C@H](CC(C)C)NC(=O)[C@H](Cc1ccccc1)NC(=O)CNC(=O)CNC(=O)CCOCCOCCOCCNC(=O)CCC(=O)N1Cc2ccccc2C#Cc2ccccc21 [S31] ({DBCO-Suc-PEG3}-GGFL-X4)
- Enzymatic cleavage efficiency % (cathepsin L): 97.5%

SMILES: CC[C@@]1(O)C(=O)OCc2c1cc1n(c2=O)Cc2c-1nc1cc(F)c(C)c3c1c2[C@@H](NC(=O)[C@H](CC(C)C)NC(=O)[C@H](Cc1ccccc1)NC(=O)CNC(=O)CNC(=O)CCCCCN1C(=O)C=CC1=O)CC3 [S2] ({Hexanoyl(6-maleimido)}-GGFL-Exatecan)
- Substrate content % [1]: 100%
- Enzymatic cleavage efficiency % (cathepsin L): 91.1%

SMILES: CCCCc1nc2c(N)nc3ccccc3c2n1CCCCNC(=O)[C@H](CC(C)C)NC(=O)[C@H](Cc1ccccc1)NC(=O)CNC(=O)CNC(=O)CCCCCN1C(=O)C=CC1=O [S3] ({Hexanoyl(6-maleimido)}-GGFL-X4)
- Substrate content % [1]: 100%
- Enzymatic cleavage efficiency % (cathepsin L; cathepsin L, within 20 h): 91.0%

SMILES: CC[C@@]1(O)C(=O)OCc2c1cc1n(c2=O)Cc2c-1nc1cc(F)c(C)c3c1c2[C@@H](NC(=O)CCCNC(=O)[C@H](CC(C)C)NC(=O)[C@H](Cc1ccccc1)NC(=O)CNC(=O)CNC(=O)CCOCCOCCOCCNC(=O)CCC(=O)N1Cc2ccccc2C#Cc2ccccc21)CC3 [S32] ({DBCO-Suc-PEG3}-GGFL[GABA]-Exatecan)
- Substrate content % [1]: 100%
- Enzymatic cleavage efficiency % (cathepsin L): 98.0%

SMILES: COc1cccc2c1C(=O)c1c(O)c3c(c(O)c1C2=O)C[C@@](O)(C(=O)CO)C[C@@H]3O[C@H]1C[C@H](NC(=O)[C@H](CC(C)C)NC(=O)[C@H](Cc2ccccc2)NC(=O)CNC(=O)CNC(=O)CCCCCN2C(=O)C=CC2=O)[C@H](O)[C@H](C)O1 [S1] ({Hexanoyl(6-maleimido)}-GGFL-{Doxorubicin(3'-N)})
- Enzymatic cleavage efficiency % (cathepsin L): 90.5%
- Generated load % [2]: 0.0%
- Substrate content % [2]: 100%

SMILES: CC(C)C[C@H](NC(=O)[C@H](Cc1ccccc1)NC(=O)CNC(=O)CNC(=O)CCCCCN1C(=O)C=CC1=O)C(=O)NCOC[C@H]1O[C@@H](n2ccc(N)nc2=O)C(F)(F)[C@@H]1O [S16] ({Hexanoyl(6-maleimido)}-GGFL-X9)
- Enzymatic cleavage efficiency % (cathepsin L): 92.3%

SMILES: CC[C@@]1(O)C(=O)OCc2c1cc1n(c2=O)Cc2c-1nc1cc(F)c(C)c3c1c2[C@@H](NC(=O)CCCNC(=O)[C@H](CC(C)C)NC(=O)[C@H](Cc1ccccc1)NC(=O)CNC(=O)CNC(=O)CCOCCOCCOCCNC(=O)OC1[C@H]2CCC#CCC[C@@H]12)CC3 (stereo partly shown) [S28] ({X7-PEG3}-GGFL[GABA]-Exatecan)
- Substrate content % [1]: 100%
- Enzymatic cleavage efficiency % (cathepsin L): 95.1%

SMILES: CC[C@@]1(O)C(=O)OCc2c1cc1n(c2=O)Cc2c-1nc1cc(F)c(C)c3c1c2[C@@H](NC(=O)COCNC(=O)[C@H](CC(C)C)NC(=O)[C@H](Cc1ccccc1)NC(=O)CNC(=O)CNC(=O)[C@H](CCCCNC(=O)COCCOCCOCCOCCOCCOC)NC(=O)CCCCCN1C(=O)C=CC1=O)CC3 [S8] ({Hexanoyl(6-maleimido)}-K(X2)GGFL[NHCH2OCH2CO]-Exatecan)
- Substrate content % [1]: 98.0%
- Enzymatic cleavage efficiency % (cathepsin L): 98.0%
- Anti-tumor rate% Day 20 (Human Fibrosarcoma): 98%
- Tumor volume(mm^3) Day 20 (Human Fibrosarcoma): 15 mm^3
- treatment efficacy compared with DXd (Human Fibrosarcoma): significantly improved treatment efficacy

SMILES: CC[C@@]1(O)C(=O)OCc2c1cc1n(c2=O)Cc2c-1nc1cc(F)c(C)c3c1c2[C@@H](NC(=O)COCNC(=O)[C@H](CC(C)C)NC(=O)[C@H](Cc1ccccc1)NC(=O)CNC(=O)CNC(=O)CCCCCOC1O[C@H](CO)[C@H](O)[C@H](O)[C@H]1NC(C)=O)CC3 (stereo partly shown) [S18] (Ac-[X1]GGFL[NHCH2OCH2CO]-Exatecan)
- Substrate content % [1]: 98.2%
- Enzymatic cleavage efficiency % (cathepsin L): 98.3%
- Anti-tumor rate% Day 20 (Human Fibrosarcoma): 95%
- Tumor volume(mm^3) Day 20 (Human Fibrosarcoma): 40 mm^3
- treatment efficacy compared with DXd (Human Fibrosarcoma): significantly improved treatment efficacy
